Test results: PubChem BioAssay (NCI)
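48-hour exposure; five concentrations; linearly interpolated endpoints. TGI marks complete inhibition of growth.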

Legend:
Experiment in all cases: NCI tumour cell line growth inhibition, 48 h
TK-10 renal = test system: TK-10 renal
CCRF-CEM leukemia = test system: CCRF-CEM leukemia
SK-MEL-2 melanoma = test system: SK-MEL-2 melanoma
SK-MEL-28 melanoma = test system: SK-MEL-28 melanoma
UO-31 renal = test system: UO-31 renal
M19-MEL melanoma = test system: M19-MEL melanoma
NCI-H460 lung = test system: NCI-H460 lung
DMS 114 small cell lung = test system: DMS 114 small cell lung
M14 melanoma = test system: M14 melanoma
SN12C renal = test system: SN12C renal
U251 CNS = test system: U251 CNS
RPMI-8226 leukemia = test system: RPMI-8226 leukemia
HCT-15 colon = test system: HCT-15 colon
RXF 393 renal = test system: RXF 393 renal
SNB-75 CNS = test system: SNB-75 CNS
MALME-3M melanoma = test system: MALME-3M melanoma
MOLT-4 leukemia = test system: MOLT-4 leukemia
HCT-116 colon = test system: HCT-116 colon
COLO 205 colon = test system: COLO 205 colon
KM20L2 colon = test system: KM20L2 colon
HT29 colon = test system: HT29 colon
SNB-19 CNS = test system: SNB-19 CNS
SR leukemia = test system: SR leukemia
NCI-H522 lung = test system: NCI-H522 lung
EKVX NSCLC = test system: EKVX NSCLC
OVCAR-8 ovarian = test system: OVCAR-8 ovarian
ACHN renal = test system: ACHN renal
IGROV1 ovarian = test system: IGROV1 ovarian
SK-OV-3 ovarian = test system: SK-OV-3 ovarian
UACC-62 melanoma = test system: UACC-62 melanoma
LXFL 529 NSCLC = test system: LXFL 529 NSCLC
SK-MEL-5 melanoma = test system: SK-MEL-5 melanoma
HOP-62 NSCLC = test system: HOP-62 NSCLC
SW-620 colon = test system: SW-620 colon
786-0 renal = test system: 786-0 renal
HL-60(TB) leukemia = test system: HL-60(TB) leukemia
UACC-257 melanoma = test system: UACC-257 melanoma
KM12 colon = test system: KM12 colon
OVCAR-5 ovarian = test system: OVCAR-5 ovarian
DLD-1 colon = test system: DLD-1 colon
DMS 273 small cell lung = test system: DMS 273 small cell lung
SF-539 CNS = test system: SF-539 CNS
SNB-78 CNS = test system: SNB-78 CNS
SF-295 CNS = test system: SF-295 CNS
XF 498 CNS = test system: XF 498 CNS
LOX IMVI melanoma = test system: LOX IMVI melanoma
HCC-2998 colon = test system: HCC-2998 colon
NCI-H23 lung = test system: NCI-H23 lung
K-562 leukemia = test system: K-562 leukemia
A549 NSCLC = test system: A549 NSCLC
OVCAR-4 ovarian = test system: OVCAR-4 ovarian
OVCAR-3 ovarian = test system: OVCAR-3 ovarian
NCI-H226 lung = test system: NCI-H226 lung
SF-268 CNS = test system: SF-268 CNS
A498 renal = test system: A498 renal
HOP-92 NSCLC = test system: HOP-92 NSCLC

SMILES: CC(C)(C)C1=Nc2c(Br)cc(C(C)(C)C)cc2C(C(F)(F)F)(C(F)(F)F)O1
- TGI (TK-10 renal): > 100 µM
- TGI (CCRF-CEM leukemia): > 100 µM
- TGI (SK-MEL-2 melanoma): > 100 µM
- TGI (SK-MEL-28 melanoma): > 100 µM
- TGI (UO-31 renal): > 100 µM
- TGI (M19-MEL melanoma): > 100 µM
- TGI (NCI-H460 lung): > 100 µM
- TGI (DMS 114 small cell lung): 86.3 µM
- TGI (M14 melanoma): > 100 µM
- TGI (SN12C renal): > 100 µM
- TGI (U251 CNS): 44.7 µM
- TGI (RPMI-8226 leukemia): 66.3 µM
- TGI (HCT-15 colon): > 100 µM
- TGI (RXF 393 renal): 43.5 µM
- TGI (SNB-75 CNS): > 100 µM
- TGI (MALME-3M melanoma): > 100 µM
- TGI (MOLT-4 leukemia): > 100 µM
- TGI (HCT-116 colon): > 100 µM
- TGI (COLO 205 colon): > 100 µM
- TGI (KM20L2 colon): > 100 µM
- TGI (HT29 colon): > 100 µM
- TGI (SNB-19 CNS): > 100 µM
- TGI (SR leukemia): > 100 µM
- TGI (NCI-H522 lung): > 100 µM
- TGI (EKVX NSCLC): > 100 µM
- TGI (OVCAR-8 ovarian): > 100 µM
- TGI (ACHN renal): > 100 µM
- TGI (IGROV1 ovarian): > 100 µM
- TGI (SK-OV-3 ovarian): > 100 µM
- TGI (UACC-62 melanoma): > 100 µM
- TGI (LXFL 529 NSCLC): > 100 µM
- TGI (SK-MEL-5 melanoma): > 100 µM
- TGI (HOP-62 NSCLC): > 100 µM
- TGI (SW-620 colon): > 100 µM
- TGI (786-0 renal): > 100 µM
- TGI (HL-60(TB) leukemia): 47.4 µM
- TGI (UACC-257 melanoma): > 100 µM
- TGI (KM12 colon): > 100 µM
- TGI (OVCAR-5 ovarian): > 100 µM
- TGI (DLD-1 colon): > 100 µM
- TGI (DMS 273 small cell lung): > 100 µM
- TGI (SF-539 CNS): > 100 µM
- TGI (SNB-78 CNS): > 100 µM
- TGI (SF-295 CNS): > 100 µM
- TGI (XF 498 CNS): 59.4 µM
- TGI (LOX IMVI melanoma): 31.3 µM
- TGI (HCC-2998 colon): 65.1 µM
- TGI (NCI-H23 lung): > 100 µM
- TGI (K-562 leukemia): > 100 µM
- TGI (A549 NSCLC): > 100 µM
- TGI (OVCAR-4 ovarian): > 100 µM
- TGI (OVCAR-3 ovarian): 37 µM

SMILES: COc1ccc(C(=O)O)c(Br)c1OCc1ccccc1
- TGI (TK-10 renal): > 100 µM
- TGI (CCRF-CEM leukemia): > 100 µM
- TGI (SK-MEL-2 melanoma): > 100 µM
- TGI (SK-MEL-28 melanoma): > 100 µM
- TGI (UO-31 renal): > 100 µM
- TGI (M19-MEL melanoma): > 100 µM
- TGI (NCI-H460 lung): > 100 µM
- TGI (NCI-H226 lung): > 100 µM
- TGI (DMS 114 small cell lung): > 100 µM
- TGI (M14 melanoma): > 100 µM
- TGI (SN12C renal): > 100 µM
- TGI (U251 CNS): > 100 µM
- TGI (RPMI-8226 leukemia): > 100 µM
- TGI (HCT-15 colon): > 100 µM
- TGI (RXF 393 renal): > 100 µM
- TGI (SNB-75 CNS): > 100 µM
- TGI (MOLT-4 leukemia): > 100 µM
- TGI (HCT-116 colon): > 100 µM
- TGI (COLO 205 colon): > 100 µM
- TGI (KM20L2 colon): > 100 µM
- TGI (HT29 colon): > 100 µM
- TGI (SNB-19 CNS): > 100 µM
- TGI (NCI-H522 lung): > 100 µM
- TGI (EKVX NSCLC): > 100 µM
- TGI (OVCAR-8 ovarian): > 100 µM
- TGI (ACHN renal): > 100 µM
- TGI (IGROV1 ovarian): > 100 µM
- TGI (SK-OV-3 ovarian): > 100 µM
- TGI (UACC-62 melanoma): > 100 µM
- TGI (LXFL 529 NSCLC): > 100 µM
- TGI (SK-MEL-5 melanoma): > 100 µM
- TGI (HOP-62 NSCLC): > 100 µM
- TGI (SW-620 colon): > 100 µM
- TGI (786-0 renal): > 100 µM
- TGI (SF-268 CNS): > 100 µM
- TGI (HL-60(TB) leukemia): > 100 µM
- TGI (KM12 colon): > 100 µM
- TGI (OVCAR-5 ovarian): > 100 µM
- TGI (DLD-1 colon): > 100 µM
- TGI (DMS 273 small cell lung): > 100 µM
- TGI (SF-539 CNS): > 100 µM
- TGI (SNB-78 CNS): > 100 µM
- TGI (SF-295 CNS): > 100 µM
- TGI (A498 renal): > 100 µM
- TGI (XF 498 CNS): > 100 µM
- TGI (LOX IMVI melanoma): > 100 µM
- TGI (NCI-H23 lung): > 100 µM
- TGI (HOP-92 NSCLC): > 100 µM
- TGI (K-562 leukemia): > 100 µM
- TGI (A549 NSCLC): > 100 µM
- TGI (OVCAR-4 ovarian): > 100 µM
- TGI (OVCAR-3 ovarian): > 100 µM
